Source: patent publication US20160333073A1, “DRUG DELIVERY SYSTEM” (UCL BUSINESS PLC, priority 2014, published 2016)
Like-named read-outs stand apart in the source and are kept apart here. Square brackets hold non-standard residues; d marks the D form. Peptide text beside a SMILES is read from it. * marks the point of attachment. FITC = O=C1OC2(c3ccc(O)cc3Oc3cc(O)ccc32)c2ccc(NC(=S)*)cc21

Legend:
[1] = Degradation by proteases in rabbit vitreous (mass spectrometry / UPLC-MS)
Experimental: FIG. 10. […] UPLC-MS=ultra performance liquid chromatography-mass spectrometry.
FIG. 11. The effect of the protease inhibitors aprotinin (8 μM), bestatin (500 μM), E-64 (150 μM), and leupeptin (200 μM) on HABP35-F detection by UPLC-MS, after 6 hours incubation in rabbit vitreous. […] The experiment was performed three times (n=3). UPLC-MS=ultra performance liquid chromatography-mass spectrometry.
In order to assess degradation of HABP35-F by proteases present in rabbit vitreous, HABP35-F was incubated in rabbit vitreous for a period of 12 hours. Samples of HABP35-F in rabbit vitreous were taken at 0 and 12 hours and the mass spectrum traces for HABP35-F were compared.
In order to confirm that fragmentation occurred at the N-terminus (as opposed to the C-terminus), HABP35-B was incubated for 12 hours with rabbit vitreous.
In order to further confirm that HABP35-F was being enzymatically digested at the N-terminus, the proportion of HABP35-F that could be detected following incubation was assessed, with or without bestatin. Bestatin is an aminopeptidase inhibitor. Aminopeptidases catalyse the cleavage of amino acids from the N-terminus of peptides/proteins.
In order to optimise detection, further other protease inhibitors were added (aprotinin, bestatin, E-64, leupeptin).

[2] = HA binder screening ELISA on non-covalently bound HA; type: binding; settings: for specific binding to non-covalently bound HA (A450 HA wells minus blank wells): n=3, compared with RP-B
Experimental: FIG. 7. […] Three ELISAs were performed for each concentration (n=3). Error bars represent standard deviation.
FIG. 8. […] Specific binding was obtained by subtracting A450 of blank wells from A450 of HA loaded wells, from the readings represented in FIG. 7. Three ELISAs were performed for each concentration (n=3). […] Error bars represent standard deviation.
Wells of a clear polystyrene Amine Surface 96 well ELISA plates (Corning Life Sciences Ltd) were loaded with 100 μl of 1 mg/ml HA sodium salt (Sigma-Aldrich Ltd) in 0.1 M 2-[N-morpholino] ethane sulfonic acid (MES, pH 4.5-5, Sigma-Aldrich Ltd). The wells were incubated for three hours at room temperature on an orbital shaker. All further incubations occurred at room temperature on an orbital shaker.
Wells were then washed three times with wash buffer (0.05% Tween 20 (Sigma-Aldrich Ltd) in phosphate buffered saline (PBS), pH 7.2-7.4). PBS was prepared to the following formula: 137 mM sodium chloride, 2.7 mM potassium chloride, 8.1 mM sodium phosphate dibasic, 1.5 mM potassium phosphate monobasic, pH 7.2-7.4, 0.22 μm filtered. 300 μl of 3% BSA (Sigma-Aldrich Ltd) in PBS was used to block each well. After 90 minutes incubation the wells were washed again three times. Different concentrations of biotinylated HA binding peptides, or control peptides, were then added, dissolved in 100 μl of 3% BSA PBS, and incubated for 1 hour. Three further washes were performed. 100 μl of streptavidin-horse radish peroxidase (S-HRP) (R&D Systems Ltd) (diluted to a working concentration of 1:200 in PBS) was added to each well, to detect any bound biotinylated peptide. The wells were incubated for 20 minutes, protected from light, followed by three further washes. 100 μl of tetramethylbenzidine (TMB)/H2O2, was added to each well. The wells were incubated for 10 minutes, protected from light. The reaction was stopped with 50 μl of 1 M H2SO4. Optical density of each well was read immediately, using a Modulus Microplate Reader set to 450 nm, One-way analysis of variance (ANOVA) was used to deter line statistical significance between groups (GraphPad Prism 5, GraphPad software Ltd).

[3] = type: binding, rabbit
From the text: The affinity of the peptide may be defined in terms of its binding affinity to hyaluronic acid and/or collagen, and assessed by way of its diffusion from one chamber of a micro-equilibrium dialyser containing vitreous matter (e.g. hyaluronic acid) to another chamber containing vitreous matter in the absence of such a binding peptide. Thus, the concentration of peptide remaining in the initial chamber over time provides a quantitative parameter for assessing the amount of peptide remaining in the vitreous, this parameter being innately governed by peptide binding properties to hyaluronic acid. A comparison with the binding properties of the peptide of SEQ ID No. 1 allows the relative affinity to the determined (for example, see FIG. 3).
FIG. 1. Harvard Fast Micro-Equilibrium Dialyzer. Each dialyzer is made of polytetrafluoroethylene (PTFE) and contains a 250 μl chamber on either side of a 100 kDa molecular weight cut off (MWCO) cellulose acetate membrane. The chambers were incubated at room temperature for up to 8 hours, and the diffusion from one chamber to the other was assessed. […]
In order to study the diffusion properties of HABP35-F in vitreous, Fast Micro-Equilibrium Dialyzers (250 μl chamber volume) were purchased from Harvard Apparatus Ltd (UK). […] The rate at which HABP35-F and RP2-F diffused from one side of the dialyzer to the other was assessed over time. […]

[4] = set-up: species or system Sprague Dawley rats; settings: rat, in vivo
Experimental: FIG. 5. The retention of HABP35-F and RP2-F in rat vitreous after 48 hours. 2.5 μl of HABP35-F or RP2-F (250 nmole/ml) was injected into the vitreous of adult male Sprague Dawley rats. After 48 hours the eyes were removed. The cornea and lens was removed and the eye cup opened out into a Maltese cross. The vitreous and retina was photographed using an epifluorescent microscope (using equal exposure settings). A) Fluorescence of HABP35-F in the vitreous 48 hours following injection. B) Fluorescence of RP-F in the vitreous 48 hours following injection. C) Collage photograph showing fluorescence of HABP35-F in the vitreous 48 hours following injection.
FIG. 6. The in vivo diffusion study of HABP35-FP (higher line) and RP2-F (lower line) in rat vitreous over time. […] At different time points (0, 8, 24, 72, 168 hours) rats were sacrificed and the concentration of peptide in the vitreous was measured by fluorescence. […]
HABP-35-F was modified to protect the N-terminus from enzymatic degradation, through conversion of the terminal leucine to its D-configuration and by acetylation. […] The vitreous was extracted and peptide concentration measured by assessing fluorescence of the extracted vitreous. Three eyes were assessed, for each peptide, at each time point. In addition, the fluorescence of the vitreous was directly assessed on eye-cup flat mounts using an epifluorescent microscope.

[5] = type: binding
Experimental: FIG. 1. Harvard Fast Micro-Equilibrium Dialyzer. Each dialyzer is made of polytetrafluoroethylene (PTFE) and contains a 250 μl chamber on either side of a 100 kDa molecular weight cut off (MWCO) cellulose acetate membrane. The chambers were incubated at room temperature for up to 8 hours, and the diffusion from one chamber to the other was assessed. The side in which the peptide is placed is termed the donating chamber. The other side, towards which the peptide diffuses, is termed the receiving chamber.
FIG. 4. The diffusion of HABP35-F (left-hand column in each case) and RP2-F (right-hand column in each case) in hyaluronic acid, using a Harvard Fast Micro-Equilibrium Dialyzer. […] Concentration of HABP35-F or RP2-F, in the donating and receiving chambers, was measured at the 8-hour time point (n=3). The concentration gradient was then determined (difference between the concentration of the donating and receiving chambers). […]
In order to assess whether the retention in the donating chamber was due to an interaction with hyaluronic acid (HA), a solution of 2.5 mg/ml HA (in HEPES buffered saline) was added to each chamber, instead of rabbit vitreous. 20 nmole/ml of HABP35-F or RP2-F was added to the donating chamber and diffusion was measured over 8 hours. […] As a control, diffusion in HEPES buffered saline (HBS) alone was also assessed. […]

Q: Which “degradation in rabbit vitreous (mass spectrum)” value ([1]; incubation in rabbit vitreous, 12 hours vs 0 hours) does the source give for “LKQKIKHVVKLKVVVKLRSQLVKRKQN-GGGS-K(Biotin)-amide [HABP35-B]” here?
A: a new ion also appeared, containing a comparable loss in MW to that seen with HABP35-F

Q: What about the “non-specific binding (blocked wells without HA)” value [2] of the same compound?
A: high non-specific binding

Q: And the “specific binding to non-covalently bound HA (A450 HA wells minus blank wells)” value [2]?
A: specific signal deteriorated at higher concentrations

Q: And the “concentrations showing specific binding relative to HABP42-B or Pep1-B” value ([2]; non-covalently bound HA)?
A: ten-fold less

Q: For “SATPASAPYPLAGGGSSATPASAPYPLAGGGS-K(FITC)-amide [RP2-F, reference compound]”, which “peptide concentration in / retention in the donating chamber” value ([3]; rabbit vitreous, 20 nmole/ml peptide in donating chamber, 100 kDa MWCO membrane, 2, 4, 6 and 8 hours, fluorescence) is on record?
A: almost reaching equilibrium

Q: And the “concentration gradient (concentration in donating chamber - concentration in receiving chamber)” value ([3]; rabbit vitreous, 2, 4, 6 and 8 hours)?
A: almost reached zero

Q: For `CC[C@H](C)[C@H](NC(=O)[C@H](CCCCN)NC(=O)[C@H](CCC(N)=O)NC(=O)[C@H](CCCCN)NC(=O)[C@@H](CC(C)C)NC(C)=O)C(=O)N[C@@H](CCCCN)C(=O)N[C@@H](Cc1c[nH]cn1)C(=O)N[C@H](C(=O)N[C@H](C(=O)N[C@@H](CCCCN)C(=O)N[C@@H](CC(C)C)C(=O)N[C@@H](CCCCN)C(=O)N[C@H](C(=O)N[C@H](C(=O)N[C@H](C(=O)N[C@@H](CCCCN)C(=O)N[C@@H](CC(C)C)C(=O)N[C@@H](CCCNC(=N)N)C(=O)N[C@@H](CO)C(=O)N[C@@H](CCC(N)=O)C(=O)N[C@@H](CC(C)C)C(=O)N[C@H](C(=O)N[C@@H](CCCCN)C(=O)N[C@@H](CCCNC(=N)N)C(=O)N[C@@H](CCCCN)C(=O)N[C@@H](CCC(N)=O)C(=O)N[C@@H](CC(N)=O)C(=O)NCC(=O)NCC(=O)NCC(=O)N[C@@H](CO)C(=O)N[C@@H](CCCCNC(=S)Nc1ccc2c(c1)C(=O)OC21c2ccc(O)cc2Oc2cc(O)ccc21)C(N)=O)C(C)C)C(C)C)C(C)C)C(C)C)C(C)C)C(C)C` [HABP35-FP] (Ac-[dL]KQKIKHVVKLKVVVKLRSQLVKRKQNGGGSK(FITC)-NH2), which “fluorescence of peptide in the vitreous (epifluorescent microscopy)” value [4] is on record?
A: increased retention

Q: What does the source list for `CC[C@H](C)[C@H](NC(=O)[C@H](CCCCN)NC(=O)[C@H](CCC(N)=O)NC(=O)[C@H](CCCCN)NC(=O)[C@@H](N)CC(C)C)C(=O)N[C@@H](CCCCN)C(=O)N[C@@H](Cc1c[nH]cn1)C(=O)N[C@H](C(=O)N[C@H](C(=O)N[C@@H](CCCCN)C(=O)N[C@@H](CC(C)C)C(=O)N[C@@H](CCCCN)C(=O)N[C@H](C(=O)N[C@H](C(=O)N[C@H](C(=O)N[C@@H](CCCCN)C(=O)N[C@@H](CC(C)C)C(=O)N[C@@H](CCCNC(=N)N)C(=O)N[C@@H](CO)C(=O)N[C@@H](CCC(N)=O)C(=O)N[C@@H](CC(C)C)C(=O)N[C@H](C(=O)N[C@@H](CCCCN)C(=O)N[C@@H](CCCNC(=N)N)C(=O)N[C@@H](CCCCN)C(=O)N[C@@H](CCC(N)=O)C(=O)N[C@@H](CC(N)=O)C(=O)NCC(=O)NCC(=O)NCC(=O)N[C@@H](CO)C(=O)N[C@@H](CCCCNC(=S)Nc1ccc2c(c1)C(=O)OC21c2ccc(O)cc2Oc2cc(O)ccc21)C(N)=O)C(C)C)C(C)C)C(C)C)C(C)C)C(C)C)C(C)C` [HABP35-F] (H-LKQKIKHVVKLKVVVKLRSQLVKRKQNGGGSK(FITC)-NH2)?
A: total amount of peptide in both chambers (degradation) during diffusion study [5]: minimal degradation; degradation in rabbit vitreous (mass spectrum) [1]: this new molecule was HABP35-F minus the N-terminal leucine; fluorescence of peptide in the vitreous (epifluorescent microscopy) [4]: visibly more fluorescent peptide

Q: For “GAHWQFNALTVR-GGGS-K(Biotin)-amide [Pep1-B, reference compound]”, which “specific binding to non-covalently bound HA (A450 HA wells minus blank wells)” value [2] is on record?
A: significantly greater specific binding at all concentrations tested

Q: Which “amount of HABP35-F detectable by UPLC-MS” value ([1]; HABP35-F 10 nmole/ml, 6 hours incubation in rabbit vitreous, bestatin 250 μM) does the source give for `CC(C)C[C@H](NC(=O)[C@@H](O)[C@H](N)Cc1ccccc1)C(=O)O` [Bestatin, reference compound] here?
A: significantly increased
